# Entries after “also recorded” stand apart in the source; their conditions may differ. Like-named read-outs stand apart in the source and are kept apart here.
# Columns and labels:
# [1] = tested on: adult rat neocortex cortical wedges; assay type: cell-based; details: for field potential response with AMPA antagonist NBQX: co-application of NBQX or other AMPA antagonists; for field potential response: cortical wedge, Mg2+-free buffer; for field potential response with NMDA receptor antagonists (AP5, kynurenate, MK801): co-application of NMDA antagonist
# Method: Cortical ‘wedges’ were prepared as described previously (Shaw et al., 1996). In brief, animals were anesthetized with CO2, decapitated, and a cortical block rapidly removed and placed in cold Krebs-Henseleit buffer containing (in mM): NaCl 124, KCl 3.3, NaHCO3 25, glucose 10, KH2PO4 1.2, CaCl2 2.4, and MgSO4 1.2, bubbled with 5% CO2/95% O2, pH 7.4. The cortical block was sectioned into […] thick coronal slices using a Vibratome (Campden Instruments) and the slices cut into pie shaped wedges in which the white matter formed the narrow edge of the wedge. Each wedge was placed on a net across a grease gap between two fluid filled chambers. The cortical side of the wedge was bathed (at room temperature, approx. 25° C.) in buffer lacking Mg^2+; the callosal portion was bathed in buffer containing Mg^2+ to minimize neural activity. Field potentials were differentially recorded between the two chambers using two Ag/AgCl electrodes. Recordings from up to 6 wedges, each in individual chambers, could be made simultaneously for each experiment. The wedges were continuously perfused on the cortical side with oxygenated, Mg^2+-free buffer using a gravity feed system. Using this system, drugs could be rapidly substituted for control media to examine response characteristics. Wedges typically survived for up to 8 hrs. Responses were recorded on LabView™ after amplification and A/D conversion and the traces were charted in Excel™ for Windows™. Statistical analysis of peak response amplitude was performed by one-way ANOVA using Bonferroni's post test with GraphPad Prism™.
# [2] = tested on: rat cortical slices; details: for LDH release (cell death) / LDH release in presence of AP5 / NMDA antagonists: rat cortical slices; for LDH release (cell death): 1 hr at 37° C.; for LDH release in presence of AP5 / NMDA antagonists: plus AP5
# Method: Cortical slices were prepared as described above in the glutamate release experiments and placed in tissue culture wells containing Krebs-Heinsleight buffer supplemented with 0.0004% H2O2 and 1 mg/mL glucose. […] For additional comparison and to establish the limits of the method, some slices were freeze-thawed to kill all the cells. Alternatively, some slices were incubated in buffer containing 1.2 mM Mg^2+ in order to diminish spontaneous neural activity. At the end of the 1 hr incubation period, 3 samples (100 μl of buffer, each sample) were taken from each well. LDH assays were performed on these samples using a LDH diagnostic kit (Sigma) following the manufacturer's protocol with some modifications. In brief, 0.5 ml of pyruvate solution was mixed with 0.5 mg pre-weighed NADH. 100 μl of slice medium (free of slices) was added to the mixture and incubated for 30 min at 37° C. 0.5 ml of Sigma coloring reagent (2, 4-dinitrophenylhydrazine in HCl, 2 mg/ml) was added to develop the color and the mixture was incubated for 20 min at room temperature. 5 ml of 0.4 N NaOH were added to each tube. After 5 min, optical density was read at 440 nm. Standard curves were prepared for each assay using different concentrations of pyruvate solution (0-960 units). LDH activity (in International Units) was calculated from the standard curve and normalized by total protein content of each slice as determined by the Lowry protein assay (Peterson, 1979). One International Unit represents the amount of enzyme required to convert 1 μmol of substrate/minute at room temperature.
# (§1) Data for LDH and glutamate release experiments were analyzed for significance by one way ANOVA using Dunnett's and Bonferroni's post tests with GraphPad Prism™.
# [3] = tested on: human cortical astrocytes; assay type: cell-based; details: for apoptotic cell loss (cell density, caspase-3): cortical astrocytes on coverslips
# Method: FIG. 5: Caspase-3 labeling of human cortical astrocytes in tissue culture. Fetal human telencephalic astrocytes were grown to confluency and then exposed to NMDA, BSSG, cholesterol glucoside (CG), or hydrogen peroxide (H2O2) for various periods. […] At longer time points, the overall numbers of cells in these conditions declined.
# We have raised cortical astrocytes on coverslips in culture, exposing them to […], or cholesterol glucoside. Cell loss was measured directly by cell density measurements; apoptosis was measured by staining cells for caspase-3 labeling.
# [4] = tested on: rat cortical slices; assay type: cell-based
# Method: Brain slices were taken from cortical blocks in which all subcortical tissue had been removed. […] slices were cut using a modified slice cutter (Van Huizen et al., 1989). Slices were rinsed twice for 5 min in Mg^+2 containing Krebs-Henseleit buffer pH 7.4. Incubation media consisted of 100 μM cold glutamate, 20 μM AP5 and 10 μM DNQX, the latter NMDA or AMPA antagonists, respectively. 10 nM of [^3H]-glutamate was added to the mixture and incubated for 1 hr at 37° C. under in oxygenated atmosphere (O2/CO2=95/5%). Experimental treatments were performed in […] Mg^+2 free buffer placed in tissue culture wells containing different concentrations of MSO or isolated BSSG fractions of cycad flour. Slices were removed at the end of incubation period and the supernatant removed for scintillation counting. The supernatant fractions were placed in scintillation vials containing NEN Formula 989 for a minimum of 12 hrs before being counted in a Beckman LS6000 scintillation counter. Results were normalized to the dpm counts of respective controls.
# as §1
# [5] = tested on: Rats; details: rats fed MSO
# Method: Terminal deoxynucleotidyl transferase (TdT) mediated dUTP-digoxigenin (DIG) nickend labeling (TUNEL) was carried out using an Intergen ApopTag Plus peroxidase kit using the manufacturer's protocol adapted from Gavrieli et al. (1992) with some modifications. […] Briefly, 20 μM thick coronal sections were cut on a cryostat then fixed in 1% paraformaldehyde at room temperature for 2 days. […] After rinsing with PBS, the sections were then exposed to 11 μL/cm^2 working strength of TdT enzyme for 1 hr at 37° C. After washing in PBS, 15 μL/cm^2 of anti-digoxigenin-peroxidase was applied for 30 min in a humidified chamber at room temperature. Colour was developed by adding 125 μl DAB substrate working solution for 6 min. Slides were counter-stained with methyl green for 25 minutes at room temperature. Positive apoptosis controls were generated by pre-incubating sections with DNAase (Sigma).
# [6] = fetal human telencephalic astrocytes, vs. control (DMEM)
smiles,measurement,setting,value
"Cc1onc(O)c1CC(N)C(=O)O (stereo not drawn) [AMPA, α-amino-3-hydroxy-5-methyl-4-isoxazolepropionic acid]",field potential response with AMPA antagonist NBQX,[1],blocked
"CC[C@H](CC[C@@H](C)[C@H]1CC[C@H]2[C@@H]3CC=C4C[C@@H](O[C@@H]5O[C@H](CO)[C@@H](O)[C@H](O)[C@H]5O)CC[C@]4(C)[C@H]3CC[C@]12C)C(C)C [BSSG, beta-sitostrol-beta-D-glucoside (5-cholesten-24b-ethyl-3b-ol-D-glucoside)]",field potential response,[1]; bath application,qualitative similarity
same,LDH release (cell death),[2],qualitative similarity
same,"apoptotic cell loss (cell density, caspase-3)",[3],time-dependent apoptotic cell loss
same,caspase-3 positive labeling,[3]; [6],significant caspase-3 positive labeling
"OO [H2O2, hydrogen peroxide]",effect on LDH release,[2],did not affect
same,caspase-3 positive labeling,[3]; human,significant caspase-3 positive labeling
"CS(=N)(=O)CC[C@H](N)C(=O)O (stereo partly shown) [MSO, methionine sulfoximine]",concentration at which depolarizing field potentials begin,"[1]; bath application, cortical wedge from adult rat",approx. 50 μM
same,field potential response,[1]; bath application,depolarizing field potentials
same,field potential response with AMPA antagonist NBQX,[1],not blocked
same,"field potential response with NMDA receptor antagonists (AP5, kynurenate, MK801)",[1],blocked
same,LDH release (cell death),[2],increased cell death
same,LDH release in presence of AP5 / NMDA antagonists,[2],blocked
same,calcium dependence of [3H]-glutamate release,[4]; calcium 0 (L) or 2 mM (H),calcium dependent
same,preloaded [3H]-glutamate release,[4]; rat cortical slices,significantly increased
same,[3H]-glutamate release in presence of AP5,"[4]; rat cortical slices, plus AP5",blocked
same,apoptosis in CNS,[5],evidence of apoptosis
"CN[C@H](CC(=O)O)C(=O)O [NMDA, N-methyl-D-aspartate]","field potential response with NMDA receptor antagonists (AP5, kynurenate, MK801)",[1],blocked
same,LDH release (cell death),[2],increased cell death
same,LDH release in presence of AP5 / NMDA antagonists,[2],attenuated; also recorded: blocked
same,caspase-3 positive labeling,[3]; [6],significant caspase-3 positive labeling
"C[C@@H]1O[C@@H](O[C@H]2C[C@@H](O)[C@]3(CO)[C@H]4[C@H](O)C[C@]5(C)[C@@H](C6=CC(=O)OC6)CC[C@]5(O)[C@@H]4CC[C@]3(O)C2)[C@H](O)[C@H](O)[C@H]1O [Ouabain, ouabain]",field potential response,[1]; bath application,small hyperpolarizing responses
same,LDH release (cell death),[2],little LDH release
"CC(C)CCC[C@@H](C)[C@H]1CC[C@H]2[C@@H]3CC=C4C[C@@H](O[C@@H]5O[C@H](CO)[C@@H](O)[C@H](O)[C@H]5O)CC[C@]4(C)[C@H]3CC[C@]12C [cholesterol glucoside, 5-cholesten-3b-ol-3b-D-glucoside]",field potential response,[1]; bath application,qualitatively similar to β-sitosterol-β-D-glucoside
same,LDH release (cell death),[2],qualitatively similar to β-sitosterol-β-D-glucoside
same,"apoptotic cell loss (cell density, caspase-3)",[3],time-dependent apoptotic cell loss
same,caspase-3 positive labeling,[3]; [6],significant caspase-3 positive labeling
CC(C)CCC[C@@H](C)[C@H]1CC[C@H]2[C@@H]3CC=C4C[C@@H](O)CC[C@]4(C)[C@H]3CC[C@]12C [cholesterol],field potential response,[1]; bath application,without effect
same,LDH release (cell death),[2],without effect
CO[C@H]1[C@@H](O)[C@@H](C)O[C@@H](O[C@H]2CC[C@]3(C)[C@H]4CC[C@]5(C)[C@@H](C6=CC(=O)OC6)CC[C@]5(O)[C@@H]4CC[C@]3(O)C2)[C@@H]1O [emicymarin],field potential response,[1]; bath application,small hyperpolarizing responses
same,LDH release (cell death),[2],little LDH release
C=C(C)[C@H]1CN[C@H](C(=O)O)[C@H]1CC(=O)O [kainic acid],"apoptotic cell loss (cell density, caspase-3)",[3],time-dependent apoptotic cell loss
"CC[C@H](CC[C@@H](C)[C@H]1CC[C@H]2[C@@H]3CC=C4C[C@@H](O)CC[C@]4(C)[C@H]3CC[C@]12C)C(C)C [β-sitosterol agylcone, beta-sitosterol (stigmasta-5-en-3beta-ol)]",field potential response,[1]; bath application,without effect
same,LDH release (cell death),[2],without effect

# Source: patent US8497123B2, “Sterol glucoside toxins” (priority 2000, dated 2013)
